Data reported in patent US12102631B2, “Quinolylnitrones for the treatment and prevention of a cerebral stroke or ischaemia” (ISQUAEMIA BIOTECH, S.L., priority 2018, dated 2024).
Several values for one entry are separate records, joined by “and”; a condition that tells them apart may be missing. Equal values may be shown once.

Legend:
[1] = tested on: primary neuronal cultures from rat cerebral cortex; assay: Neuroprotection (MTT cell viability) in primary neuronal cultures exposed to oxygen-glucose deprivation (OGD); type: cell-based; conditions: Rattus norvegicus, 24 h recovery after 4 h OGD, R24 h = 0%, control = 100%
Protocol: Primary neuronal cultures. Primary neuronal cultures from rat cerebral cortex were prepared as previously described.^54 All procedures associated with animal experiments were approved by the Ethics Committee of the Hospital Ramón y Cajal, Madrid (Spain). Cell suspensions from cerebral cortex were prepared from 16- to 17-day-old Sprague-Dawley rat embryos. Living cells in cell suspension were counted by trypan blue exclusion method. Cells were seeded on plastic multidishes precoated with 0.05 mg/mL poly-D-lysine at a density of 2.5×10^5 cells/cm^2 and were kept at 37° C. in a 6.5% CO2 atmosphere in high glucose Dulbecco's medium supplemented with 15% heat-inactivated (56° C. for 30 min) foetal calf serum. After 24 h, cultured cells were […] to induce experimental ischemia.^23 Cultured cells were washed and placed in glucose-free Dulbecco's medium (bubbled with 95% N2/5% CO2 for 30 min), and maintained in a humidified hypoxia chamber equipped with an oxygen and carbon dioxide control unit (Biospherix) at 6.5% CO2 and <0.1% O2 in N2 at 37° C. Cells were exposed to OGD for a period of 4 h (OGD 4 h). At the end of the OGD period, culture medium was replaced with oxygenated serum-free medium, and cells were placed and maintained in the normoxic incubator for 24 h to recovery (R24 h). In the neuroprotection experiments, the compounds were added at the onset of recovery period. Control cultures in Dulbecco's medium containing glucose were kept in the normoxic incubator for the same period of time as the OGD, and then medium (Dulbecco's/Ham's F12, 1:1 [vol/vol], 5 mg/mL glucose, 2 mM L-glutamine, and 1 mM sodium pyruvate, and supplemented with 100 μg/mL transferrin, 100 μM putrescine, 20 nM progesterone, 30 nM sodium selenite and 5 μg/mL insulin). Here, 6-7 day old cultured neurons were used in the experiments, and contained 90% β-III-tubulin-positive mature neurons, as described previously.^55
Exposure of cell cultures to oxygen-glucose deprivation and treatments. Primary neuronal cultures were exposed to […]. Control experiments included the same amounts of vehicle (final concentration<0.5% ethanol). Nitrone 2 was used as reference compound for neuroprotection. The experimental procedures were blindly performed, assigning a random order to each assayed nitrone. Nitrones were analyzed independently four-eight times with different batch of cultures and each experiment was run in quadruplicate.
Cell viability assay. Cell viability was evaluated by quantification of living, metabolically active cells, as determined by a colorimetric assay using the photometric reduction of 3-(4,5-dimethylthiazol-2-yl)-2,5-diphenyl tetrazolium bromide (MTT) (Roche) to a blue formazan product. The assay of living, metabolically active cells was performed by incubating with 0.2 mg/mL MTT in the culture medium for 1.5 h in an incubator at 37° C. in a 6.5% CO2 atm. After the incubation period, cells were lysed with an equal volume of 10 mM HCl and 10% SDS overnight. Values were quantified by absorbance (test 595 nm, reference 690 nm). Decreased MTT activity denotes impairment of mitochondrial function and is considered to be an index of cell damage. Primary neuronal cultures were collected at times indicated for MTT determination.
Neuroprotection of compounds was evaluated by a cell viability assay. The neuroprotective effect of the compounds 5-32 was evaluated on primary neuronal cultures from cerebral cortex subjected to oxygen-glucose deprivation (OGD) to induce experimental ischemia. Afterwards, cultured neurons were placed and kept in normoxic and normoglycemic conditions to recovery. […]

[2] = tested on: Carrageenan-induced rat paw edema; assay: Inhibition of Carrageenan-induced rat paw edema; type: in vivo, Fisher 344 rats; conditions: 0.01 mmol/kg intraperitoneally; 3.5 h after Carrageenan
Protocol: Inhibition of the Carrageenan-induced edema. Edema was induced in the right hind paw of Fisher 344 rats (150-200 g) by the intradermal injection of 0.1 mL 2% Carrageenan in water. Both sexes were used. Females pregnant were excluded. Each group was composed of 6 animals. The experiment was performed twice for validation. The animals, which have been bred in our laboratory, were housed under standard conditions and received a diet of commercial food pellets and water ad libitum during the maintenance, but they were entirely fasted during the experiment period. Nitrone 23 as well as of the standard drug indomethacin in 0.01 mmol/kg body weight, were diluted in water with few drops of Tween 80 and ground in a mortar before use and they were given intraperitoneally simultaneously with the Carrageenan injection. The rats were euthanized 3.5 h after Carrageenan administration. The difference between the weight of the injected and uninjected paws was calculated for each animal. The change in paw weight was compared with that in control animals (treated with water/or Tween-water) and expressed as a percent inhibition of the edema % ICPE values (Table 2). Values % ICPE are the mean from two different experiments (n=6 animals each time) with a standard error of the mean less than 10%.

[3] = Hydroxyl radical scavenging (competition with DMSO); type: biochemical; conditions: tested at 100 μM
Protocol: Hydroxyl Radicals Scavenging Activity.^32 The hydroxyl radicals were produced by the Fe^3+/ascorbic acid system. EDTA (0.1 mM), Fe^3+ (167 μM), DMSO (33 mM) in phosphate buffer (50 mM, pH 7.4), the tested compounds (0.1 mM) and ascorbic acid (10 mM) were mixed in test tubes. The solutions were incubated at 37° C. for 30 min. The reaction was stopped by trichloroacetic acid (17% w/v) (Table 1) and the % scavenging activity of the tested compounds for hydroxyl radicals was given.
3.2. Competition of QNs with DMSO for hydroxyl radicals. Among the ROS, the hydroxyl (·OH) free radical is possibly the most toxic, as it easily reacts with biological important molecules such as DNA, lipids or carbohydrates. Polyunsaturated fatty acids are found in high concentrations in the CNS, and are particularly vulnerable to free radicals attack. Thus, we tried to test the ability of our compound to scavenge hydroxyl radicals. […] Antioxidants with lipophilic character are needed to act as radical scavengers or as chain-breaking antioxidants in biological membranes.

[4] = Inhibition of linoleic acid peroxidation (AAPH, ILPO); type: biochemical; conditions: tested at 100 μM
Protocol: Inhibition of Linoleic Acid Peroxidation.^32 For initiating the free radical, 2,2′-azobis(2-amidinopropane) dihydrochloride (AAPH) is used. The final solution in the UV cuvette consisted of ten microliters of the 16 mM linoleate sodium dispersion 0.93 mL of 0.05 M phosphate buffer, pH 7.4, thermostatted at 37° C. 50 μL of 40 mM AAPH solution was added as a free radical initiator at 37° C. under air and 10 μL of the tested compounds. The oxidation of linoleic acid sodium salt results a conjugated diene hydroperoxide. The reaction is monitored at 234 nm (Table 1).
3.3. Anti-lipid peroxidation activity of QNs. The water-soluble azo compound 2,2′-azobis(2-amidinopropane) dihydrochloride (AAPH) has been extensively used as a clean and controllable source of thermally produced alkyl peroxyl free radicals through spontaneous thermal decomposition. […] In the AAPH assay to determine the inhibition of the lipid peroxidation (ILPO), the highly reactive alkylperoxyl radicals are intercepted mainly by a hydrogen atom transfer from the antioxidant. As shown, QN23 presented limited value, where QNs 19, 22 and 24 presented very high values (Table 3).

[5] = ABTS radical cation decolorization assay; type: biochemical; conditions: tested at 100 μM
Protocol: ABTS^⋅+-decolorization assay in ethanolic solution for antioxidant activity.^32,35 ABTS is dissolved in water to a 2 mM concentration. ABTS radical cation (ABTS^⋅+) is produced by reacting the ABTS stock solution with 0.17 mM potassium persulfate in phosphate buffer (pH 7.4, 20 mM) and allowing the mixture to stand in the dark at room temperature for 12-16 h before use. For steady state measurements, […] ABTS^⋅+ was used. For the present study, the […] ABTS^⋅ solution (200 μL) was diluted with ethanol (790 μL) to an absorbance of 0.70 at 734 nm, equilibrated at room temperature, mixed with 10 μL of the tested compounds (stock solutions 10 mM) and the absorbance reading was taken at room temperature 1 min after the initial mixing. Trolox was used as a standard.
3.4. ABTS^⋅+ antioxidant activity of QNs. The ABTS^⋅+ radical cation, derived from the oxidation of 2,2′-azino-bis(3-ethylbenzothiazoline-6-sulphonic acid) (ABTS) by potassium persulfate, is a green-blue stable chromophore, which can be analyzed in the course of a decolorization assay. The addition of electron-donor antioxidants leads to ABTS^⋅+ reduction. The chemistry taking place involves the direct generation of the ABTS^⋅+ with no involvement of an intermediary radical. […] Again, and as shown, QN23 presented limited activity beside with 19, although the others nitrones had no activity (Table 3).

[6] = Interaction with the stable radical DPPH; type: biochemical; conditions: tested at 100 μM; reducing activity
Protocol: Interaction of the nitrone with the Stable Radical 1,1-diphenyl-picrylhydrazyl (DPPH) To a solution of DPPH in absolute ethanol the appropriate volume of the compounds (0.1 mM final concentrations) dissolved in DMSO was added. The absorbance was recorded at 517 nm after 20 and 60 min at room temperature (Table 1).
3.1. Antioxidant activity of QNs using radical DPPH. […] This purple colour generally disappears in the presence of an antioxidant due to the reduction of the DPPH radical by single electron transfer (SET) from the antioxidant converted it to colourless/bleached product. […] In this assay, we measured the initial absorbance of DPPH and the absorbance once the potential antioxidant was added. The antioxidant activity was expressed as the percentage of reducing activity.

| Compound | viability at 0.3 µM [1] [%] | viability at 1 µM [1] [%] | viability at 10 µM [1] [%] | viability at 100 µM [1] [%] | melting point [°C] | further results |
| --- | --- | --- | --- | --- | --- | --- |
| Cc1ccc2c(c1)cc(/C=[N+](\[O-])C(C)(C)C)c(Cl)[n+]2[O-] [Compound 30, (Z)—N-tert-Butyl-1-(2-chloro-6-methyl-1-oxidoquinolin-3-yl)methanimine oxide] | 13 ± 0.47 | 37.5 ± 1.94 | < 0 | < 0 | 211 to 214 |  |
| COc1ccc2c(c1)c(CC(=O)O)c(C)n2C(=O)c1ccc(Cl)cc1 [Indomethacin, indomethacin, reference compound] |  |  |  |  |  | ICPE % [2]: 47 ± 1.0 % |
| Cc1ccc2c(c1)cc(/C=[N+](\[O-])Cc1ccccc1)c(Cl)[n+]2[O-] [Compound 29, (Z)—N-Benzyl-1-(2-chloro-6-methyl-1-oxidoquinolin-3-yl)methanimine oxide] | 8.28 ± 0.51 | < 0 | < 0 | < 0 | 163 to 165 |  |
| Cc1c(C)c2c(c(C)c1O)CCC(C)(C(=O)O)O2 (stereo not shown) [Trolox, reference compound] |  |  |  |  |  | *OH (%) [3]: 73%; ILPO (%) / AAPH (%) [4]: 63% and 88%; ILPO (%) / AAPH (%) ([4]; listed as trolox): 88%; ABTS*+ (%) [5]: 91% |
| CC(Cc1ccc(O)c(O)c1)C(C)Cc1ccc(O)c(O)c1 (stereo not shown) [NDGA, nordihydroguaiaretic acid, reference compound] |  |  |  |  |  | DPPH (%) [6]: 93% |
